Results taken from patent US20170205395A1, “METHODS FOR PROVIDING PERSONALIZED MEDICINE TEST EX VIVO FOR HEMATOLOGICAL NEOPLASMS” (priority 2009, published 2017).
Read-outs that look alike come from different tables or passages of the source.

Key:
malignant CLL cells = type: cell-based; conditions: for ex vivo efficacy in killing malignant cells compared with approved cytotoxic drugs: CLL ex vivo samples, FIG. 6; for induction of apoptosis after 24 hours: CLL whole blood samples, 24 hours incubation, FIG. 8; for ex vivo patient response: 30 μM; for ability of SSRIs to induce apoptosis in malignant CLL cells: FIG. 9
[1] = system: patients with Chronic Lymphocytic Leukemia; conditions: cited from earlier work
T and NK cells = assay: Ex vivo Annexin V flow cytometry apoptosis assay in CLL whole blood, non-malignant cells; type: cell-based, human; conditions: approximately 30 μM, whole blood sample from a CLL patient, FIG. 7
MOLT-4 cells = assay: Apoptosis ELISA (one step sandwich ELISA of histone-complexed DNA fragments); type: cell-based, human; conditions: 24 hours, FIG. 20
Description: The one step sandwich ELISA is based in the quantification of histone-complexed DNA fragments (mono- and oligonucleosomes) out of the cytoplasm of cells after the induction of apoptosis or when released from necrotic cells.

[2] = system: active caspase-3 in MOLT-4 cells; assay: Active caspase-3 determination by Western blot; type: cell-based, human; conditions: 24 hours, FIG. 21
Description: Caspase-3 activation was determined using a Western blot of extracts from two acute lymphoblastic cell lines (TOM-1 and MOLT-4) exposed to increased concentrations of sertraline. […] Active caspase-3 is a protease that serves as a marker of apoptosis.

[3] = CLL sample, maximum concentrations, cyclophosphamide tested as its metabolite maphosphamide, FIG. 22

With `COc1ccc(CCN2CCC(Nc3nc4ccccc4n3Cc3ccc(F)cc3)CC2)cc1` [astemizole] the “ex vivo efficacy in killing malignant cells compared with approved cytotoxic drugs” value (malignant CLL cells) was “ex vivo efficacy similar to that of the approved cytotoxic drugs”.
For `O=C(O)CCCc1ccc(N(CCCl)CCCl)cc1` [chlorambucil], the “induction of apoptosis by the drug alone” value (malignant CLL cells; CLL patient sample, low concentrations, lower curve of FIG. 11) is listed as “did not induce much apoptosis”, the “induction of apoptosis after 24 hours” value (malignant CLL cells) is listed as ~45% and the “% of patients responding” value ([1]; CLL patients with ITRT result DI (Drug Intermediate)) is listed as 66.3 (92) %. The “% of patients responding” value ([1]; CLL patients with ITRT result DR (Drug Resistant)) was 37.6 (24) %, the “% of patients responding” value ([1]; CLL patients with ITRT result DS (Drug Sensitive)) was 85.1 (94) % and the “% of patients responding” value ([1]; all CLL patients (Total)) was 71.5 (210) %.
In the case of `O=P1(N(CCCl)CCCl)NCCCO1` (centres unmarked) [cyclophosphamide], the “ex vivo efficacy (resistant / sensitive)” value (malignant CLL cells) is reported as “resistant”.
With `COc1cccc2c1C(=O)c1c(O)c3c(c(O)c1C2=O)C[C@@](O)(C(=O)CO)C[C@@H]3O[C@H]1C[C@H](N)[C@H](O)[C@H](C)O1` [doxorubicin] the “ex vivo patient response” value (malignant CLL cells; the two patients denoted by a star, FIG. 4) was “very effective”.
For `Nc1nc(F)nc2c1ncn2[C@@H]1O[C@H](CO)[C@@H](O)[C@@H]1O` [fludarabine], the “induction of apoptosis after 24 hours” value (malignant CLL cells) was “approximately 40%”.
With `CNCCC(Oc1ccc(C(F)(F)F)cc1)c1ccccc1` (centres unmarked) [fluoxetine] the “ex vivo efficacy in killing malignant cells compared with approved cytotoxic drugs” value (malignant CLL cells) was “ex vivo efficacy similar to that of the approved cytotoxic drugs” and the “ability of SSRIs to induce apoptosis in malignant CLL cells” value (“ability of SSRIs to induce apoptosis” below) (malignant CLL cells) was “induce apoptosis similarly to clinically approved cytotoxic drugs”.
For `COCCCC/C(=N\OCCN)c1ccc(C(F)(F)F)cc1` [fluvoxamine], the “ability of SSRIs to induce apoptosis” value (malignant CLL cells) was “only 3 (paroxetine, fluoxetine, and sertraline) induce apoptosis similarly”.
In the case of `N=C(N)N/N=C/c1c(Cl)cccc1Cl` [guanabenz], the “ex vivo efficacy in killing malignant cells compared with approved cytotoxic drugs” value (malignant CLL cells) is reported as “ex vivo efficacy similar to that of the approved cytotoxic drugs”.
For `O=C1c2c(O)ccc(O)c2C(=O)c2c(NCCNCCO)ccc(NCCNCCO)c21` [mitoxantrone], the “ex vivo patient response” value (malignant CLL cells; patients P1.0105, P2.0019 and P2.035, FIG. 4) was “extreme resistance ex vivo”, the “ex vivo efficacy (resistant / sensitive)” value (malignant CLL cells; [3]) was “resistant” and the “induction of apoptosis after 24 hours” value (malignant CLL cells) was ~50%.
For `COc1ccc2[nH]c([S+]([O-])Cc3ncc(C)c(OC)c3C)nc2c1` (centres unmarked) [omeprazole], the “apoptotic rate (Annexin V positive cells) compared with cytotoxic agents” value (malignant CLL cells; sample of one CLL patient, FIG. 12) was “showed similar apoptotic rates as the cytotoxic agents”.
In the case of `Fc1ccc([C@@H]2CCNC[C@H]2COc2ccc3c(c2)OCO3)cc1` [paroxetine], the “ex vivo efficacy in killing malignant cells compared with approved cytotoxic drugs” value (malignant CLL cells) is reported as “ex vivo efficacy similar to that of the approved cytotoxic drugs”, the “ability of SSRIs to induce apoptosis” value (malignant CLL cells) is reported as “induce apoptosis similarly to clinically approved cytotoxic drugs” and the “apoptosis in leukemic cells” value (malignant CLL cells; approximately 30 μM, whole blood sample from a CLL patient, FIG. 7) is reported as ~100%. For the same compound, the “apoptosis in T and NK cells” value (T and NK cells) was 15%.
With `CN[C@H]1CC[C@@H](c2ccc(Cl)c(Cl)c2)c2ccccc21` [sertraline] the “ex vivo efficacy in killing malignant cells compared with approved cytotoxic drugs” value (malignant CLL cells) was “ex vivo efficacy similar to that of the approved cytotoxic drugs”, the “potentiation of chlorambucil-induced apoptosis” value (malignant CLL cells; CLL patient sample, sub-maximal dose of sertraline added to chlorambucil, upper curve of FIG. 11) was “greatly enhanced the level of apoptosis” and the “time to eliminate all malignant cells” value (malignant CLL cells; CLL sample, FIG. 28) was ≤ 24 h. For the same compound, the “incubation with the sample required to induce maximal apoptosis” value (malignant CLL cells; CLL sample, drug washed away, apoptosis measured at 24 or 48 hours, FIG. 28) was 30 min, the “induction of apoptosis after 24 hours” value (malignant CLL cells) was “more than 90%” and the “ability of SSRIs to induce apoptosis” value (malignant CLL cells) was “induce apoptosis similarly to clinically approved cytotoxic drugs”. The “increase of the Apoptosis Index” value (MOLT-4 cells) was “up to 7 fold” and the “induction of active caspase-3” value [2] was “dramatically induced active caspase-3”.
For `CN(C)C/C=C(/c1ccc(Br)cc1)c1cccnc1` [zimelidine], the “ability of SSRIs to induce apoptosis” value (malignant CLL cells) was “only 3 (paroxetine, fluoxetine, and sertraline) induce apoptosis similarly”.
In the case of “rituximab: antibody approved for CLL treatment”, the “ex vivo efficacy (resistant / sensitive)” value (malignant CLL cells; [3]) is reported as “resistant”.
